Data published in US20260071220A1, “CONJUGATE OF NUCLEOTIDE ANALOG-CONTAINING DOUBLE-STRANDED RNAI ANALOG” (BaseCure Therapeutics LLC, priority 2022, published 2026).
In the oligonucleotide strings, read from the 5' end, every base follows the letter of its sugar. An asterisk marks phosphorothioate; unmarked linkages are phosphodiester. Other units and linkages are bracketed, terminal groups are in braces. A string of capitals states the bases alone. {D01} = GalNAc ligand D01, attached to sense strand by a phosphodiester bond; m = 2'-O-methyl; f = 2'-fluoro

Assays:
[1] = system: Transcriptome; assay: In vitro RNA sequencing study (off target risk); type: cell-based
From the text: Transcriptome refers to a sum of all RNA transcripted from specific tissues or cells at a certain time or state, mainly including mRNA and non-encoding RNA. Transcriptome sequencing is to study all mRNA transcripted from specific tissues or cells during a certain period based on an Illumina sequencing platform, is a basis for gene functions and structure study, and plays an important role in understanding the development of organisms and the occurrence of diseases. With the development of gene sequencing technologies and reduction in sequencing cost, RNA-seq, with its advantages of high throughput, high sensitivity and wide application range, has become a main method for transcriptome study. The RNA-seq technical process mainly includes two parts: library construction and sequencing, and biological information analysis.
RNA was extracted from tissues or cells using a standard extraction method, and subsequently serious quality control was performed on RNA samples. The quality control method was mainly achieved by Agilent 2100 bioanalyzer to precisely detect the integrity of RNA.
mRNA was obtained mainly by the following two methods: one was to utilize the structural feature that most mRNA in eukaryotes had polyA tails to enrich mRNA with polyA tails using Oligo (dT) magnetic beads; and the other one was to remove ribosomal RNA from total RNA to obtain mRNA. Subsequently, the obtained mRNA was randomly fragmented using divalent cations in NEB Fragmentation Buffer, and library construction was carried out using either an NEB ordinary library construction method or a strand specific library construction method.
NEB ordinary library construction: a first strand of a cDNA was synthesized in an M-MuLV reverse transcriptase system by using fragmented mRNA as a template and random oligonucleotides as primers. Subsequently, the RNA strand was digested using RNaseH, and a second strand of the cDNA was synthesized in a DNA polymerase I system using dNTPs as a raw material. The purified double-stranded cDNA was subjected to end repair, A tail addition and sequencing linker linkage. About 250-300 bp cDNAs were screened using AMPure XP beads and subjected to PCR amplification, and the PCR product was purified again using AMPure XP beads to finally obtain a library. A kit for library construction was NEBNext® Ultra™ RNA Library Prep Kit for Illumina®.
Strand specific library construction: a method for synthesizing the first strand of cDNA was the same as the NEB ordinary library construction method except that when the second strand was synthesized, dTTP in dNTPs was replaced by dUTP, and then end repair, A tail addition, sequencing linker linkage and length screening of cDNA were similarly carried out. Subsequently, the second strand of cDNA containing U was digested using USER enzyme followed by PCR amplification to obtain the library. […] A kit used for the library construction was NEB Next® Ultra™ Directional RNA Library Prep Kit for Illumina®.
After library construction was completed, preliminary quantification was carried out using Qubit2.0 Fluorometer. The library was diluted to 1.5 ng/uL, and subsequently the insert size of the library was detected using Agilent 2100 bioanalyzer. After the insert size met the expectation, the effective concentration of the library was accurately quantified by QRT-PCR (the effective concentration of the library was higher than 2 nM) to ensure the quality of the library.
After library inspection was qualified, different libraries were subjected to Illumina sequencing after pooling according to effective concentration and target offline data volume requirements. The basic principle of sequencing was sequencing by synthesis. Four fluorescent labeled dNTPs and DNA polymerases as well as linker primers were added in the sequenced flow cell for amplification. […]

[2] = system: AGT mRNA; assay: Free uptake experiment of PHH cells (AGT mRNA by qPCR); type: cell-based, human; settings: 48 h
Method: A sample to be tested was incubated with primary human hepatocytes. The downregulation degree of AGT mRNA by the sample to be tested was evaluated.
Primary human hepatocytes (PHH), RNeasy® 96 Kit (12) (QIAGEN-74182), FastKing RT Kit (With gDNase) (Tiangen-KR116-02), TaqMan Gene Expression Assay (GAPDH, Thermo, Assay ID-Hs02786624_g1), TaqMan Gene Expression Assay (AGT, Thermo, Assay ID-Hs01586213_m1).
A conjugate of the present invention was diluted with a PBS solution until the obtained concentration was 10 times the concentration to be tested. 10 uL of siRNA was transferred to a 96-well plate. PHH cells were thawed and seeded to the 96-well plate, and the final cell density was 5.4×10^5 cells/well. The conjugate of the present invention was tested for 10 concentration points, and the highest concentration was 500 nM, with 4-fold dilution.
The cells were incubated for 48 h under the conditions of 37° C. and 5% CO2, and the state of the cells was observed using a microscope.
After the incubation was completed, the cells were lysed, all of RNA was extracted from the obtained lysate using RNeasy® 96 Kit (QIAGEN-74182), and underwent reverse transcription using FastKing RT Kit (With gDNase) (Tiangen-KR116-02) to obtain cDNA. AGT cDNA was detected by qPCR.

## Conjugate 2: Double-stranded RNAi analog against AGT, D01 GalNAc ligand on sense strand; sense SEQ ID NO: 6, antisense SEQ ID NO: 2 containing Z (sense mA*mU*fCfCmAfCfAfAmUmGmAmGmAfGmUmAmCmA-{D01}; antisense CUCACAUGUACNCUCAUUGUGGAUGACGA; antisense: chemistry not given here; antisense strand modified, includes nucleotide analog Z, further chemistry not fully specified)
[1]; number of downregulated genes, average
  Downregulate Average: 658
[1]; number of downregulated genes, replicate 1
  Downregulate N = 1: 1006
[1]; number of downregulated genes, replicate 2
  Downregulate N = 2: 309
[1]; number of upregulated genes, average
  Upregulate Average: 722
[1]; number of upregulated genes, replicate 1
  Upregulate N = 1: 1033
[1]; number of upregulated genes, replicate 2
  Upregulate N = 2: 410
[1]; total regulated genes, average
  Total Average: 1379
[1]; total regulated genes, replicate 1
  Total N = 1: 2039
[1]; total regulated genes, replicate 2
  Total N = 2: 719
[2]
  Emax (remaining AGT mRNA): 5%
[2]; AGT mRNA, read-out: Absolute EC50
  EC50: 0.197 nM
[2]; log of the absolute EC50 in nM
  Log (concentration): −0.705
